Source: patent US10413529B2, “Methods of inhibiting cataracts and presbyopia” (UNIVERSITY OF MASSACHUSETTS, priority 2013, dated 2019)
Values joined by “and” are separate entries in the source; they are usually repeats but may differ in a detail not shown here. Identical values can stand only once.

What was measured:
γ-crystallin [1] = experiment: Circular dichroism of modified γ-crystallin (secondary structure); format: biochemical; conditions: 0.5 mg/mL, 22° C., versus native protein
Method: Crystallin samples were dialyzed overnight into 10 mM Na2HPO4/NaH2PO4 buffer pH 6.8 and measured at a concentration of 0.5 mg/mL. CD spectra were measured on a Jasco J715 spectropolarimeter at 22° C. using a quartz cell of 1 mm path length.

[2] = tested on: human corneal epithelial cells (EpiOcular™ tissue); experiment: Trans-epithelial transport across epithelium construct; format: in vitro ADME
Method: The transport of the CAPEG4 across an epithelium construct was studied. The epithelium is the outer layer of the cornea and transport across the epithelium has proven to be challenging.
Specifically, the CAPEG4 construct in solution (10) was added to the top of an apparatus including a tissue culture plastic insert (11) containing culture medium (12) and an epithelium construct. (FIG. 19).

γ-crystallin [3] = experiment: DLS, aggregation of γ-crystallin (stated for γD and γS together); format: biochemical; conditions: dilute solution, 22° and 37° C.
Method: Scattering intensity was measured at angles between 30° and 90° at 5° intervals, corresponding to a scattering wave vector (q) range between 8.41×10^6 and 2.30×10^7 m^−1. The scattering wave vector is defined as q=4πn sin (θ/2)/λ, where θ is the scattering angle, and λ=514.5, the wavelength of the argon laser in vacuum, and n is 1.33, the refractive index of water. The temperature of the sample was held at constant temperature of 4 to 37±0.1° C. by a circulating water bath.
The correlation function was analyzed using CONTIN analysis to calculate lag times for the correlation functions at measured angles. The peaks represent the diffusive mode of the proteins. The delay times (τ) were converted to Γ and graphed versus q^2. The slope of the fitted line is the diffusion coefficient (D). The lines are fitted such that the intercept is zero because a non-zero value of q=0 is unphysical. The Γ versus q^2 plots were linear with r^2 values of 0.95 or greater.
All solutions were filtered with 0.22 μm hydrophobic PVDF membranes (Fisher Scientific) into 10 mm diameter borosilicate glass tubes and sealed. Solutions were allowed to equilibrate for thirty minutes prior to measuring light scattering.
γ-crystallins were subjected to a variety of experimental conditions, including a range of pHs (5, 6, 7, 8, 9, 10, 11), concentrations of KCl (100 mM, 150 mM, 300 mM, 500 mM, 1000 mM) and temperature (4.5° C., 22° C., 37° C.). The pH and salt concentration were adjusted via overnight dialysis at 4° C. and their final concentration adjusted to 1.0 g/L.
It had been hypothesized that disulfide bonds might mediate the observed γ-crystallin aggregates. The DLS of the γ-crystallin proteins was also measured in 5 mM DTT, and in the presence of 1.0 g/L α-crystallin. […] Thus, this hypothesis was incorrect.
Further, the synthesized α-crystallin proteins were mixed with γ-crystallin proteins to determine if the chaperoning ability of α-crystallin disrupts the γ-crystallin aggregates. The α-A and α-B crystallins were each individually mixed with γD- or γS-crystallin in a molar ratio of 3:1, respectively, mimicking the ratio found in the human eye lens. All solutions were allowed to equilibrate for an hour at 4° C.

[4] = 16 mg/mL CAPEG4, blank insert (no tissue) at 15 min

With NCCOCCOCCOCCOCCC(=O)O [CAPEG4] the “secondary structure of modified γ-crystallin (CD spectra)” value (γ-crystallin [1]) was “showed a similar trend to modifications made with PEG4 and PEG24”, the “Bottom Average” value ([2]; 1 mg/ml CAPEG4, 15 min) was 13 mcg/well and the “Top Average” value ([2]; 1 mg/ml CAPEG4, 15 min) was 449 mcg/well. For the same compound, the Top mcg/well ([2]; 1 mg/ml CAPEG4, 15 min) was 427 mcg/well and 472 mcg/well, the “Bottom % (stock)” value ([2]; 1 mg/ml CAPEG4, 15 min, stock 543 mcg/well) was 2.4% and the “Bottom Average” value ([2]; 1 mg/ml CAPEG4, 30 min) was 31 mcg/well. For the same compound, the Bottom mcg/well ([2]; 1 mg/ml CAPEG4, 30 min) was 26 mcg/well and 37 mcg/well, the “Top Average” value ([2]; 1 mg/ml CAPEG4, 30 min) was 446 mcg/well and the Top mcg/well ([2]; 1 mg/ml CAPEG4, 30 min) was 448 mcg/well and 445 mcg/well. For the same compound, the “Bottom % (stock)” value ([2]; 1 mg/ml CAPEG4, 30 min, stock 543 mcg/well) was 5.8%, the “Bottom Average” value ([2]; 1 mg/ml CAPEG4, 45 min) was 8 mcg/well and the Bottom mcg/well ([2]; 1 mg/ml CAPEG4, 45 min) was 9 mcg/well and 8 mcg/well. For the same compound, the “Top Average” value ([2]; 1 mg/ml CAPEG4, 45 min) was 443 mcg/well, the Top mcg/well ([2]; 1 mg/ml CAPEG4, 45 min) was 459 mcg/well and 428 mcg/well and the “Bottom % (stock)” value ([2]; 1 mg/ml CAPEG4, 45 min, stock 543 mcg/well) was 1.5%. The “Bottom Average” value ([2]; 1 mg/ml CAPEG4, 60 min) was 9 mcg/well, the Bottom mcg/well ([2]; 1 mg/ml CAPEG4, 60 min) was 8 mcg/well and 11 mcg/well and the “Top Average” value ([2]; 1 mg/ml CAPEG4, 60 min) was 421 mcg/well. For the same compound, the Top mcg/well ([2]; 1 mg/ml CAPEG4, 60 min) was 454 mcg/well and 388 mcg/well, the “Bottom % (stock)” value ([2]; 1 mg/ml CAPEG4, 60 min, stock 543 mcg/well) was 1.7% and the “Bottom Average” value ([2]; 1 mg/ml CAPEG4, 90 min) was 31 mcg/well. For the same compound, the “Top Average” value ([2]; 1 mg/ml CAPEG4, 90 min) was 463 mcg/well, the Top mcg/well ([2]; 1 mg/ml CAPEG4, 90 min) was 467 mcg/well and 459 mcg/well and the “Bottom % (stock)” value ([2]; 1 mg/ml CAPEG4, 90 min, stock 543 mcg/well) was 5.7%. The “Bottom Average” value ([2]; 1 mg/ml CAPEG4, 120 min) was 25 mcg/well, the Bottom mcg/well ([2]; 1 mg/ml CAPEG4, 120 min) was 21 mcg/well and 30 mcg/well and the “Top Average” value ([2]; 1 mg/ml CAPEG4, 120 min) was 481 mcg/well. For the same compound, the Top mcg/well ([2]; 1 mg/ml CAPEG4, 120 min) was 453 mcg/well and 510 mcg/well, the “Bottom % (stock)” value ([2]; 1 mg/ml CAPEG4, 120 min, stock 543 mcg/well) was 4.7% and the “Bottom Average” value ([2]; 1 mg/ml CAPEG4, Time 0 harvest) was 3 mcg/well. The Bottom mcg/well ([2]; 1 mg/ml CAPEG4, Time 0 harvest) was 4 mcg/well and 3 mcg/well, the “Top Average” value ([2]; 1 mg/ml CAPEG4, Time 0 harvest) was 450 mcg/well and the Top mcg/well ([2]; 1 mg/ml CAPEG4, Time 0 harvest) was 446 mcg/well and 453 mcg/well. For the same compound, the “Bottom % (stock)” value ([2]; 1 mg/ml CAPEG4, Time 0 harvest, stock 543 mcg/well) was 0.6%, the “Bottom Average” value ([2]; 16 mg/mL CAPEG4, 15 min) was 60 mcg/well and the Bottom mcg/well ([2]; 16 mg/mL CAPEG4, 15 min) was 58 mcg/well and 62 mcg/well. The “Top Average” value ([2]; 16 mg/mL CAPEG4, 15 min) was 6375 mcg/well, the Top mcg/well ([2]; 16 mg/mL CAPEG4, 15 min) was 5842 mcg/well and 6908 mcg/well and the “Bottom % (stock)” value ([2]; 16 mg/mL CAPEG4, 15 min, stock 8186 mcg/well) was 0.7%. For the same compound, the “Bottom Average” value ([2]; 16 mg/mL CAPEG4, 30 min) was 99 mcg/well, the Bottom mcg/well ([2]; 16 mg/mL CAPEG4, 30 min) was 93 mcg/well and 105 mcg/well and the “Top Average” value ([2]; 16 mg/mL CAPEG4, 30 min) was 6312 mcg/well. The Top mcg/well ([2]; 16 mg/mL CAPEG4, 30 min) was 6099 mcg/well and 6526 mcg/well, the “Bottom % (stock)” value ([2]; 16 mg/mL CAPEG4, 30 min, stock 8186 mcg/well) was 1.2% and the “Bottom Average” value ([2]; 16 mg/mL CAPEG4, 45 min) was 548 mcg/well. For the same compound, the Bottom mcg/well ([2]; 16 mg/mL CAPEG4, 45 min) was 677 mcg/well and 418 mcg/well, the “Top Average” value ([2]; 16 mg/mL CAPEG4, 45 min) was 6335 mcg/well and the Top mcg/well ([2]; 16 mg/mL CAPEG4, 45 min) was 6313 mcg/well and 6356 mcg/well. The “Bottom % (stock)” value ([2]; 16 mg/mL CAPEG4, 45 min, stock 8186 mcg/well) was 6.7%, the “Bottom Average” value ([2]; 16 mg/mL CAPEG4, 60 min) was 149 mcg/well and the Bottom mcg/well ([2]; 16 mg/mL CAPEG4, 60 min) was 160 mcg/well and 139 mcg/well. The “Top Average” value ([2]; 16 mg/mL CAPEG4, 60 min) was 6972 mcg/well, the Top mcg/well ([2]; 16 mg/mL CAPEG4, 60 min) was 6450 mcg/well and 7494 mcg/well and the “Bottom % (stock)” value ([2]; 16 mg/mL CAPEG4, 60 min, stock 8186 mcg/well) was 1.8%. The “Bottom Average” value ([2]; 16 mg/mL CAPEG4, 90 min) was 525 mcg/well, the Bottom mcg/well ([2]; 16 mg/mL CAPEG4, 90 min) was 525 mcg/well and the “Top Average” value ([2]; 16 mg/mL CAPEG4, 90 min) was 6457 mcg/well. For the same compound, the Top mcg/well ([2]; 16 mg/mL CAPEG4, 90 min) was 6122 mcg/well and 6792 mcg/well, the “Bottom % (stock)” value ([2]; 16 mg/mL CAPEG4, 90 min, stock 8186 mcg/well) was 6.4% and the “Bottom Average” value [2, 4] was 1837 mcg/well. For the same compound, the Bottom mcg/well [2, 4] was 1837 mcg/well, the “Top Average” value [2, 4] was 7857 mcg/well and the Top mcg/well [2, 4] was 7857 mcg/well. For the same compound, the “Bottom % (stock)” value ([2]; 16 mg/mL CAPEG4, blank insert (no tissue) at 15 min, stock 8186 mcg/well) was 23% and the “aggregation of γ-crystallin modified with the agent (DLS)” value (γ-crystallin [3]) was “prevented aggregation of proteins”.
